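Protocol summary: plate cells (96-well), add compound at 5 concentrations, incubate 48 h, interpolate endpoints linearly. The concentration for 50% growth inhibition is given as GI50.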 Activity calls are given as the source filed them. Cut-off read from the data, not from the text of the source: active = GI50 up to about 1.1 µM and inactive = higher.
Assays:
Assay in all cases: DTP human tumour cell line panel, 48 h
A498 = tested on: A498
SN12C = tested on: SN12C
A549 = tested on: A549
HCC 2998 = tested on: HCC 2998
UACC-257 = tested on: UACC-257
M14 = tested on: M14
EKVX = tested on: EKVX
HCT-116 = tested on: HCT-116
SK-OV-3 = tested on: SK-OV-3
U-251 = tested on: U-251
HOP-62 = tested on: HOP-62
HOP-92 = tested on: HOP-92
LOX IMVI = tested on: LOX IMVI
MDA-MB-435 = tested on: MDA-MB-435
HCT-15 = tested on: HCT-15
NCI-H522 = tested on: NCI-H522
SNB-19 = tested on: SNB-19
SR = tested on: SR
OVCAR-8 = tested on: OVCAR-8
HT-29 = tested on: HT-29
SK-MEL-28 = tested on: SK-MEL-28
RXF 393 = tested on: RXF 393
ACHN = tested on: ACHN
HL-60 = tested on: HL-60
TK-10 = tested on: TK-10
786-0 = tested on: 786-0
OVCAR-3 = tested on: OVCAR-3
BT-549 = tested on: BT-549
COLO 205 = tested on: COLO 205
NCI-H226 = tested on: NCI-H226
K562 = tested on: K562
NCI-H460 = tested on: NCI-H460
CAKI-1 = tested on: CAKI-1
CCRF-CEM = tested on: CCRF-CEM
SK-MEL-5 = tested on: SK-MEL-5
SF-539 = tested on: SF-539
SF-268 = tested on: SF-268
MDA-N = tested on: MDA-N
SF-295 = tested on: SF-295
Hs-578T = tested on: Hs-578T
SNB-75 = tested on: SNB-75
OVCAR-4 = tested on: OVCAR-4
SK-MEL-2 = tested on: SK-MEL-2
MDA-MB-231 = tested on: MDA-MB-231
MCF7 = tested on: MCF7
SW-620 = tested on: SW-620
UACC-62 = tested on: UACC-62
NCI-H23 = tested on: NCI-H23
OVCAR-5 = tested on: OVCAR-5
T47D = tested on: T47D
NCI/ADR-RES = tested on: NCI/ADR-RES
UO-31 = tested on: UO-31
IGROV-1 = tested on: IGROV-1
MOLT-4 = tested on: MOLT-4
DU-145 = tested on: DU-145
KM12 = tested on: KM12
PC-3 = tested on: PC-3
RPMI-8226 = tested on: RPMI-8226
Malme-3M = tested on: Malme-3M

## CC[C@]1(c2ccc3c(c2)OCO3)C=[N+]([O-])O[C@H](OC2CCCC2(c2ccccc2)c2ccccc2)[C@@H]1OC(C)=O (some centres undefined)
A498
  GI50: 1.27 µM (inactive)
SN12C
  GI50: 3.15 µM (inactive)
A549
  GI50: 2.63 µM (inactive)
HCC 2998
  GI50: 1.85 µM (inactive)
UACC-257
  GI50: 2.58 µM (inactive)
M14
  GI50: 2.28 µM (inactive)
EKVX
  GI50: 2.42 µM (inactive)
HCT-116
  GI50: 1.78 µM (inactive)
SK-OV-3
  GI50: 3.01 µM (inactive)
U-251
  GI50: 3.62 µM (inactive)
HOP-62
  GI50: 2.08 µM (inactive)
HOP-92
  GI50: 2.09 µM (inactive)
LOX IMVI
  GI50: 2.09 µM (inactive)
MDA-MB-435
  GI50: 1.8 µM (inactive)
HCT-15
  GI50: 2.26 µM
NCI-H522
  GI50: 1.77 µM (inactive)
SNB-19
  GI50: 3.22 µM (inactive)
SR
  GI50: 2.22 µM (inactive)
OVCAR-8
  GI50: 1.95 µM (inactive)
HT-29
  GI50: 1.68 µM (inactive)
SK-MEL-28
  GI50: 2.12 µM (inactive)
RXF 393
  GI50: 1.27 µM (inactive)
ACHN
  GI50: 2.81 µM (inactive)
HL-60
  GI50: 2.87 µM (inactive)
TK-10
  GI50: 3.27 µM (inactive)
786-0
  GI50: 1.77 µM (inactive)
OVCAR-3
  GI50: 1.81 µM (inactive)
BT-549
  GI50: 2.53 µM (inactive)
COLO 205
  GI50: 2.23 µM (inactive)
NCI-H226
  GI50: 4.3 µM (inactive)
K562
  GI50: 2.36 µM (inactive)
NCI-H460
  GI50: 2.24 µM (inactive)
CAKI-1
  GI50: 3.42 µM (inactive)
CCRF-CEM
  GI50: 2.86 µM (inactive)
SK-MEL-5
  GI50: 1.56 µM (inactive)
SF-539
  GI50: 4.22 µM (inactive)
SF-268
  GI50: 2.4 µM (inactive)
MDA-N
  GI50: 3.83 µM (inactive)
SF-295
  GI50: 1.32 µM (inactive)
Hs-578T
  GI50: 3.16 µM (inactive)
SNB-75
  GI50: 2.16 µM (inactive)
OVCAR-4
  GI50: 2.62 µM (inactive)
SK-MEL-2
  GI50: 2.38 µM (inactive)
MDA-MB-231
  GI50: 4.01 µM (inactive)
MCF7
  GI50: 2.47 µM (inactive)
SW-620
  GI50: 2.96 µM (inactive)
UACC-62
  GI50: 1.95 µM (inactive)
NCI-H23
  GI50: 2.48 µM (inactive)
OVCAR-5
  GI50: 3.83 µM (inactive)
T47D
  GI50: 2.09 µM (inactive)
NCI/ADR-RES
  GI50: 1.92 µM (inactive)
UO-31
  GI50: 2.05 µM (inactive)
IGROV-1
  GI50: 1.94 µM (inactive)
MOLT-4
  GI50: 2 µM (inactive)
DU-145
  GI50: 2.1 µM (inactive)
KM12
  GI50: 1.77 µM (inactive)
PC-3
  GI50: 3.24 µM (inactive)

## O=C1CC(CC(O)C(O)C(O)CO)CC(=O)N1 (centres undefined)
A498
  GI50: > 100 µM (inactive)
SN12C
  GI50: > 100 µM (inactive)
A549
  GI50: > 100 µM (inactive)
HCC 2998
  GI50: > 100 µM (inactive)
UACC-257
  GI50: > 100 µM (inactive)
M14
  GI50: > 100 µM (inactive)
EKVX
  GI50: > 100 µM (inactive)
HCT-116
  GI50: > 100 µM (inactive)
U-251
  GI50: > 100 µM (inactive)
HOP-62
  GI50: > 100 µM (inactive)
HOP-92
  GI50: > 100 µM (inactive)
LOX IMVI
  GI50: > 100 µM (inactive)
MDA-MB-435
  GI50: > 100 µM (inactive)
HCT-15
  GI50: > 100 µM
NCI-H522
  GI50: > 100 µM (inactive)
SR
  GI50: > 100 µM (inactive)
OVCAR-8
  GI50: > 100 µM (inactive)
HT-29
  GI50: > 100 µM (inactive)
SK-MEL-28
  GI50: > 100 µM (inactive)
RPMI-8226
  GI50: > 100 µM (inactive)
RXF 393
  GI50: > 100 µM (inactive)
ACHN
  GI50: > 100 µM (inactive)
HL-60
  GI50: > 100 µM (inactive)
786-0
  GI50: > 100 µM (inactive)
OVCAR-3
  GI50: > 100 µM (inactive)
BT-549
  GI50: > 100 µM (inactive)
COLO 205
  GI50: > 100 µM (inactive)
NCI-H226
  GI50: > 100 µM (inactive)
K562
  GI50: > 100 µM (inactive)
NCI-H460
  GI50: > 100 µM (inactive)
CAKI-1
  GI50: > 100 µM (inactive)
CCRF-CEM
  GI50: > 100 µM (inactive)
SK-MEL-5
  GI50: > 100 µM (inactive)
SF-539
  GI50: > 100 µM (inactive)
SF-268
  GI50: > 100 µM (inactive)
Malme-3M
  GI50: > 100 µM (inactive)
MDA-N
  GI50: > 100 µM (inactive)
SF-295
  GI50: > 100 µM (inactive)
Hs-578T
  GI50: > 100 µM (inactive)
SNB-75
  GI50: > 100 µM (inactive)
OVCAR-4
  GI50: > 100 µM (inactive)
MDA-MB-231
  GI50: > 100 µM (inactive)
MCF7
  GI50: > 100 µM (inactive)
SW-620
  GI50: > 100 µM (inactive)
NCI-H23
  GI50: > 100 µM (inactive)
OVCAR-5
  GI50: > 100 µM (inactive)
T47D
  GI50: > 100 µM (inactive)
NCI/ADR-RES
  GI50: > 100 µM (inactive)
UO-31
  GI50: > 100 µM (inactive)
IGROV-1
  GI50: > 100 µM (inactive)
MOLT-4
  GI50: > 100 µM (inactive)
DU-145
  GI50: > 100 µM (inactive)
KM12
  GI50: > 100 µM (inactive)
PC-3
  GI50: > 100 µM (inactive)

## O=C(CSc1nc2ccc(I)cc2c(=O)n1Cc1ccccc1)NN1C(=O)c2ccccc2C1=O
A498
  GI50: 14.8 µM (inactive)
SN12C
  GI50: 18.8 µM (inactive)
A549
  GI50: 18 µM (inactive)
HCC 2998
  GI50: 28.8 µM (inactive)
UACC-257
  GI50: 17.5 µM (inactive)
M14
  GI50: 28.5 µM (inactive)
EKVX
  GI50: 12.9 µM (inactive)
HCT-116
  GI50: 16.7 µM (inactive)
SK-OV-3
  GI50: 11.6 µM (inactive)
U-251
  GI50: 12.7 µM (inactive)
HOP-62
  GI50: 4.75 µM (inactive)
HOP-92
  GI50: 14.4 µM (inactive)
LOX IMVI
  GI50: 15 µM (inactive)
MDA-MB-435
  GI50: 34.4 µM (inactive)
HCT-15
  GI50: 30.1 µM
NCI-H522
  GI50: 14.9 µM (inactive)
SNB-19
  GI50: 16.5 µM (inactive)
SR
  GI50: 25.7 µM (inactive)
OVCAR-8
  GI50: 11.8 µM (inactive)
HT-29
  GI50: 24.8 µM (inactive)
SK-MEL-28
  GI50: 17.9 µM (inactive)
RPMI-8226
  GI50: 33.3 µM (inactive)
RXF 393
  GI50: 8.3 µM (inactive)
ACHN
  GI50: 18.9 µM (inactive)
HL-60
  GI50: 16.7 µM (inactive)
TK-10
  GI50: 13.7 µM (inactive)
786-0
  GI50: 6.04 µM (inactive)
OVCAR-3
  GI50: 11.6 µM (inactive)
BT-549
  GI50: 15.4 µM (inactive)
COLO 205
  GI50: 25.5 µM (inactive)
NCI-H226
  GI50: 6.3 µM (inactive)
K562
  GI50: 31 µM (inactive)
NCI-H460
  GI50: 22.9 µM (inactive)
CAKI-1
  GI50: 9.23 µM (inactive)
SK-MEL-5
  GI50: 18.1 µM (inactive)
SF-539
  GI50: 3.42 µM (inactive)
SF-268
  GI50: 8.85 µM (inactive)
Malme-3M
  GI50: 18.2 µM (inactive)
MDA-N
  GI50: 37.3 µM (inactive)
SF-295
  GI50: 10.6 µM (inactive)
Hs-578T
  GI50: 6.47 µM (inactive)
SNB-75
  GI50: 4.3 µM (inactive)
OVCAR-4
  GI50: 12.2 µM (inactive)
SK-MEL-2
  GI50: 10.8 µM (inactive)
MDA-MB-231
  GI50: 11.2 µM (inactive)
MCF7
  GI50: 23.3 µM (inactive)
SW-620
  GI50: 27.5 µM (inactive)
UACC-62
  GI50: 24.9 µM (inactive)
NCI-H23
  GI50: 18.2 µM (inactive)
OVCAR-5
  GI50: 26.2 µM (inactive)
T47D
  GI50: 15.8 µM (inactive)
NCI/ADR-RES
  GI50: 15.5 µM (inactive)
UO-31
  GI50: 2.37 µM (inactive)
IGROV-1
  GI50: 19.3 µM (inactive)
MOLT-4
  GI50: 28.4 µM (inactive)
DU-145
  GI50: 25.4 µM (inactive)
KM12
  GI50: 31.2 µM (inactive)
PC-3
  GI50: 4.09 µM (inactive)

— ChEMBL document CHEMBL1201862, “PubChem BioAssay data set” (2004)
